Results from US7947275B2 (Signe Biopharma, Inc., priority 2000, dated 2011).
“And” between values parts separate entries of the source, which are not always exact repeats. Identical values can stand only once. Like-named read-outs stand apart in the source and are kept apart here.

What was measured:
[1] = system: GH4C1, GH1 and GH3 rat pituitary tumor cell lines; experiment: Thyroid hormone growth effects with GH cell lines in CDE-horse serum; assay type: cell-based
Procedure: Thyroid Hormone Responsive Pituitary Tumor Cell Growth in CDE-Serum Prepared at 34° C. […] Nonetheless, the 34° C. […] It is known that the thyroid hormone receptor is a member of a superfamily of receptors that also includes the steroid hormone receptors (Evans R M (1988) Science (Wash D.C.) 240:889-895). Testing of substances expected to have thyroid hormone like activity can be performed with the GH cell lines in the presence of low concentrations of CDE-serum.

[2] = system: HT-29 cells; experiment: Cell growth assay, HT-29 human colon cancer cells; assay type: cell-based; details: CAPM with plasma IgM at 40 μg/mL, increasing concentrations of T3
Source text: General Cell Culture—Growth Assay Methods.
General Cell Culture—Harvest and Counting Cells.
General Cell Culture—Quantification of Growth.

[3] = target: T1, CA-PS-Pool I (predominantly CBG) (Equus caballus, UniProt F7DRS2); experiment: Scatchard analysis of labeled steroid binding to CA-PS-pool I; parameters: species or system horse; details: 3H-labeled steroid, 34° C.; read-out: CA-PS-Pool I Kd
T1 sequence (F7DRS2 23-406): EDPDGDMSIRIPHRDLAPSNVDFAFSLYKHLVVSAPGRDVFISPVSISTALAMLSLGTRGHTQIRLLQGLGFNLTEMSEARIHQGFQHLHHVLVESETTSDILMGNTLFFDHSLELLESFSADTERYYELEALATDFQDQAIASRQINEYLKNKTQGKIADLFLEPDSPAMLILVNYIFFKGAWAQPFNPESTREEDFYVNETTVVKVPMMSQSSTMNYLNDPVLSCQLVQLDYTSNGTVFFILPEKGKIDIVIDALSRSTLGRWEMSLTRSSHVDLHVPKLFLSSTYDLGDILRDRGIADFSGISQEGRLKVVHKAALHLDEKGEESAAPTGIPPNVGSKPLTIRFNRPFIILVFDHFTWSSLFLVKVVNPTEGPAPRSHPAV

[4] = read-out: Kd of ^3H-E2 specific binding
[5] = system: CA-PS-Pool II; experiment: Scatchard analysis of labeled steroid binding to CA-PS-pool II; parameters: species or system horse; details: 3H-labeled steroid, 34° C.
[6] = system: MCF-7A, T47D and MTW9/PL2 cells; experiment: Direct test of phenol red versus E2 as mitogen with three ER^+ cell lines; assay type: cell-based; details: phenol red free D-MEM/F-12 with 30% CDE-HS
Procedure: Direct Test of Phenol Red Estrogenic Activity. Three cell lines were selected for a direct test of phenol red as a mitogen. […] This concentration was chosen even though it is not as inhibitory as 50% (v/v) serum. This selection was made to reduce possible interactions of the phenol red/contaminant with serum proteins while still retaining a significant inhibitory effect. Phenol red concentrations of up to 16 mg/L were added to this medium. This highest level was twice that in standard commercially formulated Gibco-BRL D-MEM/F-12. […] The preparations used in this study ranged in age from newly obtained to more than ten year old laboratory stocks.

[7] = system: CA-PS-Pool II from rat serum; experiment: Scatchard analysis of labeled steroid binding to the SHBG-like pools from rat serum; details: 3H-labeled steroid
[8] = system: GH4C1 cells; experiment: Cell growth assay, GH4C1 rat pituitary tumor cells; details: serum-free PCM-9
[9] = system: T47D cells; experiment: Cell growth assay, T47D human breast cancer cells; details: serum-free DDM-2MF ± 10 nM E2
[10] = system: H301 cells; experiment: Cell growth assay, H301 kidney tumor cells; details: serum-free defined CAPM
[11] = system: progesterone receptors of MTW9/PL2 cells; experiment: Estrogen induction of progesterone receptors in MTW9/PL2 cells; assay type: cell-based, rat; details: 1.0×10^−8 M E2, within two days; two experiments
Source text: All results were normalized to “receptors per cell” to correct for growth over the duration of the experiment.

[12] = system: MCF-7K cells; experiment: Cell growth assay, MCF-7K human breast cancer cells; details: serum-free DDM-2MF ± 10 nM E2, 12 days
[13] = target: estrogen receptor of H301 cells (Mesocricetus auratus, UniProt Q9QZJ5); details: cited from earlier work
estrogen receptor of H301 cells, sequence (Q9QZJ5 whole entry): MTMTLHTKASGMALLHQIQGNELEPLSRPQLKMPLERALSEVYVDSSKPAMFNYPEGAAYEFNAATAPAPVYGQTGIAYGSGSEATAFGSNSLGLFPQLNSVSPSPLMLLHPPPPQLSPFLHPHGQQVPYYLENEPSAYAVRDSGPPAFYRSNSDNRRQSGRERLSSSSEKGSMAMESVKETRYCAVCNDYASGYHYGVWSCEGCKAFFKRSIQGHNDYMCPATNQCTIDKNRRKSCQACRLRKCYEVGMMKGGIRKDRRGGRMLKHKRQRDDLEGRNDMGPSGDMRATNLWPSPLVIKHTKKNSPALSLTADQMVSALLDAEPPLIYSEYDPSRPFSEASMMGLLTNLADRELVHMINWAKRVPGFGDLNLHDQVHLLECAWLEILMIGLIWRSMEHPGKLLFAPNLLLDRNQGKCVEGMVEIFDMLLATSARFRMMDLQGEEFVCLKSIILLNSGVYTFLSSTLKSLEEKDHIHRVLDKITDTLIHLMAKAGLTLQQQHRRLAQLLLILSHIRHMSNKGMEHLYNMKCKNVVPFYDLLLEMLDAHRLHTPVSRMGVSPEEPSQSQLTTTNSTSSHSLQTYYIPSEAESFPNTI

[14] = system: ERβ; details: Transfection Studies, ERβ only; cited from earlier work
[15] = system: ZR-75-1 cells; experiment: Cell growth assay, ZR-75-1 human breast cancer cells; details: serum-free defined DDM-2MF
[16] = target: human SHBG (Homo sapiens, UniProt P04278); details: 37° C.; cited from earlier work
human SHBG, sequence (P04278 30-402): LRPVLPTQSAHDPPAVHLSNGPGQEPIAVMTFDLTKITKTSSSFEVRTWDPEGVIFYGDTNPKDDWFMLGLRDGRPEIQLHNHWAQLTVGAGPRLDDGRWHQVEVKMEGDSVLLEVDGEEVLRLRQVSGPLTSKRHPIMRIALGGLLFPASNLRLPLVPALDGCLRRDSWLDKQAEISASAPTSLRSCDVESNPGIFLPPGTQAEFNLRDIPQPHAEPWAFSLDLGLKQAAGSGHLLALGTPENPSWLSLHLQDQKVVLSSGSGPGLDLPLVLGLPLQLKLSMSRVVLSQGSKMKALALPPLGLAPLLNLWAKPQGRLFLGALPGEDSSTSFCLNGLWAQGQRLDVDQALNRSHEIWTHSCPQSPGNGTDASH

[17] = system: progesterone receptors of T47D cells; experiment: Induction of progesterone receptors in T47D cells; assay type: cell-based, human; details: four days, phenol red free medium
[18] = system: LNCaP cells; experiment: Cell growth assay, LNCaP human prostatic carcinoma cells; assay type: cell-based; details: D-MEM/F-12 with CDE-horse serum, 10 nM steroid
Procedure: Specific modifications of the customary cell growth assays were required for assays done under iron-restricted conditions. […] Serum-free components were added to “low-Fe” D-MEM/F-12 at double the concentrations needed (2X) or to “standard” D-MEM/F-12 at (2X) as the experiments dictated. Each assay dish received 1.0 mL of this solution. Next, the cells to be used in the assays were washed three times in either “low-Fe” medium or “standard” medium depending upon the experimental protocol.

[19] = read-out: Kd of ^3H-E2 specific binding; remark: listed apart in the source
[20] = target: T2, estrogen receptors of intact T47D cells (Homo sapiens, UniProt P03372); experiment: Displacement of ^3H-E2 binding to intact T47D cells; details: 5 nM ^3H-E2, two hours at 37° C.; r9-r14: 2.5, 5.0, 50, 250, 500, 1000 nM Unlabeled E2; r15-r19: 1, 2, 4, 5, 16 mg/L Phenol Red
T2 construct: endogenous in cells; host or cells: T47D human breast cancer cells

N[C@@H](Cc1cc(I)c(Oc2ccc(O)c(I)c2)c(I)c1)C(=O)O [T3, 3′, 5-Triiodothyronine]
growth effect, result in words ([1]; 50% (v/v) CDE-horse serum): only supraphysiologic concentrations of thyroid hormone showed growth effects
growth effect, result in words ([1]; D-MEM/F-12 with […] (v/v) CDE-horse serum): caused substantial growth
thyroid hormone reversal of the IgM inhibition [2]: restored growth

C[C@]12CC[C@@H]3c4ccc(O)cc4CC[C@H]3[C@@H]1CC[C@@H]2O [E2, 17β-estradiol]
Kd [3]: 10500 nM
Kd [4]: 20 to 50 nM
CA-PS-Pool II Ka [5]: 3.55e+07 M⁻¹
growth responses to the natural hormone [6]: 2 to 5 CPD
CA-PS-Pool II Ka [7]: 2.4e+07 M⁻¹
Kd [7]: 41 nM
effect of E2 in serum-free defined medium without inhibitor [8]: had no effect on growth rate or saturation density
effect of estrogen in serum-free defined medium without inhibitor [9]: 0.5 to 1.0 CPD
effect of estrogen in serum-free defined medium without inhibitor ([9]; listed as estrogen): 1.0 CPD
effect of estrogen in serum-free defined medium without inhibitor [10]: had no effect on H301 cell growth
increase in number of progesterone receptors per cell [11]: 1.8 fold and 2.0 fold
effect of E2 in serum-free defined medium without inhibitor [12]: had no effect on growth rate or saturation density
Kd ([13]; read-out: Kd for E2, CELL EXTRACTS): 0.87 nM
Kd ([13]; read-out: Kd for E2, Table 5: lowest Kd): 0.87 nM
Kd ([13]; read-out: Kd for E2, WHOLE CELLS): 1 nM
Kd for E2, CELL EXTRACTS [14]: 0.05 to 0.1 × 10^−9 M
effect of E2 in serum-free defined medium without inhibitor [15]: no effect
Ka of purified human SHBG [16]: 2.2e+08 M⁻¹
increase in progesterone receptors ([17]; 1.0×10^−8 M): four
increase in progesterone receptor content ([17]; 1.0×10^−12 M): two
reversal of the inhibition caused by CDE-horse serum [18]: reversed the CDE-serum caused inhibition completely
Kd [19]: 20 to 50 nM

O=S1(=O)OC(c2ccc(O)cc2)(c2ccc(O)cc2)c2ccccc21 [Phenol Red]
Percent of Control [20]: 102% and 111% and 94% and 99% and 110%
